Converted amounts (≈) assume the structure as drawn. Like-named read-outs stand apart in the source and are kept apart here.
How the values were obtained:
[1] = system: S. aureus WCUH29; assay: MIC against S. aureus WCUH29, alone and with subinhibitory concentrations of a second agent; type: cell-based, Staphylococcus aureus; details: for MIC: Staphylococcus aureus, WCUH29, S. aureus WCUH29
[2] = system: representative S. aureus strains; assay: MIC against representative S. aureus strains, summary over strains; type: cell-based, Staphylococcus aureus
Source text: (§1) Subinhibitory Concentrations of PDF Inhibitors Decrease the MICs of Macrolides against Representative S. aureus Strains
(§2) Subinhibitory Concentrations of Macrolides Decrease the MICs of PDF Inhibitors against Representative S. aureus Strains

[3] = system: H. influenzae Q1; assay: MIC against H. influenzae Q1, alone and with subinhibitory concentrations of a second agent; type: cell-based, Haemophilus influenzae;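 note: combinations paired PDF inhibitors with macrolides, one class added below its own MIC to test whether the MIC of the other class dropped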
[4] = system: S. aureus strain Oxford; assay: MIC against S. aureus strain Oxford, alone and in combination; type: cell-based, Staphylococcus aureus; details: for MIC: Staphylococcus aureus
Source text: as §1, §2

[5] = system: S. aureus strain Smith; assay: MIC against S. aureus strain Smith, alone and in combination; type: cell-based, Staphylococcus aureus; details: for MIC: Staphylococcus aureus
[6] = system: S. aureus strain PK1; assay: MIC against S. aureus strain PK1, alone and in combination; type: cell-based, Staphylococcus aureus; details: for MIC: Staphylococcus aureus
Source text: as §1, §2

[7] = system: S. aureus strain RN4220; assay: MIC against S. aureus strain RN4220, alone and in combination; type: cell-based, Staphylococcus aureus; details: for MIC: Staphylococcus aureus
[8] = S. aureus, text summary of Example 4
[9] = no second agent, read-out: MIC, single agent
[10] = H. influenzae Q1, +0.25 ug/m Azithromycin
[11] = H. influenzae Q1, +0.5 ug/mL Azithromycin
[12] = single agent, read-out: MIC, Compound (1a) alone
[13] = with ¼ MIC of Tylosin, read-out: MIC, Compound (1a) with ¼ MIC of Tylosin
[14] = with ½ MIC of Tylosin, read-out: MIC, Compound (1a) with ½ MIC of Tylosin
[15] = S. aureus WCUH29, +0.5 ug/mL Compound (1a)
[16] = S. aureus WCUH29, +1 ug/mL Compound (1a)
[17] = H. influenzae Q1, +0.5 ug/mL Compound (1a)
[18] = H. influenzae Q1, +1 ug/mL Compound (1a)
[19] = macrolide alone, read-out: MIC, −Compound (1a)

Structure (SMILES): CCCCC[C@H](CN(O)C=O)C(=O)NNc1nccc(C(F)(F)F)n1 [Compound (1a), N-hydroxy-N-{(R)-2-[N′-(4-trifluoromethyl-pyrimidin-2-yl)-hydrazinocarbonyl]-heptyl}-formamide]
- Compound (1a) fold decrease MIC ([1]; S. aureus WCUH29, +Azithromycin 0.25 μg/ml {¼ × MIC}): [4] fold
- Compound (1a) fold decrease MIC ([1]; S. aureus WCUH29, +Azithromycin 0.5 μg/ml {½ × MIC}): [8] fold
- Compound (1a) fold decrease MIC ([1]; S. aureus WCUH29, +Ciprofloxacin 0.06 μg/ml {¼ × MIC}): [0] fold
- Compound (1a) fold decrease MIC ([1]; S. aureus WCUH29, +Ciprofloxacin […] {½ × MIC}): [0] fold
- Compound (1a) fold decrease MIC ([1]; S. aureus WCUH29, +Erythromycin 0.06 μg/ml {¼ × MIC}): [4] fold
- Compound (1a) fold decrease MIC ([1]; S. aureus WCUH29, +Erythromycin […] {½ × MIC}): [8] fold
- Compound (1a) fold decrease MIC ([1]; S. aureus WCUH29, +Tylosin 0.25 μg/ml {¼ × MIC}): [4] fold
- Compound (1a) fold decrease MIC ([1]; S. aureus WCUH29, +Tylosin 0.5 μg/ml {½ × MIC}): [32] fold
- decrease of MIC by subinhibitory concentrations of azithromycin [1, 8]: 4-8 fold
- decrease of MIC by subinhibitory concentrations of erythromycin [1, 8]: 4-8 fold
- decrease of MIC by subinhibitory concentrations of tylosin [1, 8]: 4-32 fold
- effect of subinhibitory concentrations of ciprofloxacin on antibacterial potency [1, 8]: no effect
- MIC ([1]; +Azithromycin 0.25 μg/ml {¼ × MIC}, read-out: Compound (1a) MIC): 0.5 µg/mL (≈ 1.38 µM)
- MIC ([1]; +Azithromycin 0.5 μg/ml {½ × MIC}, read-out: Compound (1a) MIC): 0.25 µg/mL (≈ 0.688 µM)
- MIC ([1]; +Ciprofloxacin 0.06 μg/ml {¼ × MIC}, read-out: Compound (1a) MIC): 2 µg/mL (≈ 5.5 µM)
- MIC ([1]; +Ciprofloxacin […] {½ × MIC}, read-out: Compound (1a) MIC): 2 µg/mL (≈ 5.5 µM)
- MIC ([1]; +Erythromycin 0.06 μg/ml {¼ × MIC}, read-out: Compound (1a) MIC): 0.5 µg/mL (≈ 1.38 µM)
- MIC ([1]; +Erythromycin […] {½ × MIC}, read-out: Compound (1a) MIC): 0.25 µg/mL (≈ 0.688 µM)
- MIC ([1]; +Tylosin 0.25 μg/ml {¼ × MIC}, read-out: Compound (1a) MIC): 0.5 µg/mL (≈ 1.38 µM)
- MIC ([1]; +Tylosin 0.5 μg/ml {½ × MIC}, read-out: Compound (1a) MIC): 0.06 µg/mL (≈ 0.165 µM)
- MIC [1, 9]: 2 µg/mL (≈ 5.5 µM)
- decrease of MIC by subinhibitory concentrations of tylosin ([2]; Example 6): 2-128 fold
- MIC, antibiotic with 0.25 ug/m (¼ MIC) of Azithromycin [3, 10]: 1 µg/mL
- fold decrease MIC, antibiotic with 0.25 ug/m (¼ MIC) of Azithromycin [3, 10]: [2] fold
- MIC, antibiotic with 0.5 ug/mL (½ MIC) of Azithromycin [3, 11]: 0.5 µg/mL
- fold decrease MIC, antibiotic with 0.5 ug/mL (½ MIC) of Azithromycin [3, 11]: [4] fold
- MIC, antibiotic alone ([3]; H. influenzae Q1, single agent (Example 8)): 2 µg/mL (≈ 5.5 µM)
- MIC [4, 12]: 2 µg/mL
- MIC [4, 13]: 1 µg/mL
- MIC [4, 14]: 0.25 µg/mL
- fold decrease MIC, Compound (1a) with ¼ MIC of Tylosin ([4]; with ¼ MIC of Tylosin): [2] fold
- fold decrease MIC, Compound (1a) with ½ MIC of Tylosin ([4]; with ½ MIC of Tylosin): [8] fold
- MIC [5, 12]: 4 µg/mL
- MIC [5, 13]: 0.5 µg/mL
- MIC [5, 14]: 0.125 µg/mL
- fold decrease MIC, Compound (1a) with ¼ MIC of Tylosin ([5]; with ¼ MIC of Tylosin): [8] fold
- fold decrease MIC, Compound (1a) with ½ MIC of Tylosin ([5]; with ½ MIC of Tylosin): [32] fold
- MIC [6, 12]: 0.5 µg/mL
- MIC [6, 13]: 0.06 µg/mL
- MIC [6, 14]: 0.016 µg/mL
- fold decrease MIC, Compound (1a) with ¼ MIC of Tylosin ([6]; with ¼ MIC of Tylosin): [8] fold
- fold decrease MIC, Compound (1a) with ½ MIC of Tylosin ([6]; with ½ MIC of Tylosin): [32] fold
- MIC [7, 12]: 4 µg/mL
- MIC [7, 13]: 0.25 µg/mL
- MIC [7, 14]: 0.03 µg/mL
- fold decrease MIC, Compound (1a) with ¼ MIC of Tylosin ([7]; with ¼ MIC of Tylosin): [16] fold
- fold decrease MIC, Compound (1a) with ½ MIC of Tylosin ([7]; with ½ MIC of Tylosin): [128] fold

Structure (SMILES): CC[C@H]1OC(=O)C[C@@H](O)[C@H](C)[C@@H](O[C@@H]2O[C@H](C)[C@@H](O[C@H]3C[C@@](C)(O)[C@@H](O)[C@H](C)O3)[C@H](N(C)C)[C@H]2O)[C@@H](CC=O)C[C@@H](C)C(=O)/C=C/C(C)=C/[C@@H]1CO[C@@H]1O[C@H](C)[C@@H](O)[C@@H](OC)[C@H]1OC [Tylosin, tylosin]
- MIC, antibiotic with 0.5 ug/mL (¼ MIC) of Compound (1a) [1, 15]: 0.25 µg/mL
- fold decrease MIC, antibiotic with 0.5 ug/mL (¼ MIC) of Compound (1a) [1, 15]: [4] fold
- MIC, antibiotic with 1 ug/mL (½ MIC) of Compound (1a) [1, 16]: 0.125 µg/mL
- fold decrease MIC, antibiotic with 1 ug/mL (½ MIC) of Compound (1a) [1, 16]: [8] fold
- MIC, antibiotic alone ([1]; S. aureus WCUH29, single agent): 1 µg/mL (≈ 1.09 µM)
- decrease of MIC by subinhibitory concentrations of Compound (1a) ([1]; S. aureus, Example 3): 4-8 fold
- MIC [1, 9]: 1 µg/mL (≈ 1.09 µM)
- decrease of MIC by subinhibitory concentrations of Compound (1a) ([2]; text summary of Example 5): 4-32 fold
- MIC, antibiotic with 0.5 ug/mL (¼ MIC) of Compound (1a) [3, 17]: 8 µg/mL
- fold decrease MIC, antibiotic with 0.5 ug/mL (¼ MIC) of Compound (1a) [3, 17]: [2] fold
- MIC, antibiotic with 1 ug/mL (½ MIC) of Compound (1a) [3, 18]: 4 µg/mL
- fold decrease MIC, antibiotic with 1 ug/mL (½ MIC) of Compound (1a) [3, 18]: [4] fold
- MIC, antibiotic alone ([3]; H. influenzae Q1, single agent (Example 7)): 16 µg/mL (≈ 17.5 µM)
- decrease of MIC by subinhibitory concentrations of Compound (1a) ([3]; H. influenzae, text summary of Example 7): 2-4 fold
- MIC [4, 19]: 0.5 µg/mL
- MIC, +Compound (1a) [¼ × MIC] ([4]; with ¼ × MIC of Compound (1a)): 0.06 µg/mL
- fold decrease MIC, +Compound (1a) [¼ × MIC] ([4]; with ¼ × MIC of Compound (1a)): [8] fold
- MIC, +Compound (1a) [½ × MIC] ([4]; with ½ × MIC of Compound (1a)): 0.03 µg/mL
- fold decrease MIC, +Compound (1a) [½ × MIC] ([4]; with ½ × MIC of Compound (1a)): [16] fold
- MIC [5, 19]: 1 µg/mL
- MIC, +Compound (1a) [¼ × MIC] ([5]; with ¼ × MIC of Compound (1a)): 0.25 µg/mL
- fold decrease MIC, +Compound (1a) [¼ × MIC] ([5]; with ¼ × MIC of Compound (1a)): [4] fold
- MIC, +Compound (1a) [½ × MIC] ([5]; with ½ × MIC of Compound (1a)): 0.125 µg/mL
- fold decrease MIC, +Compound (1a) [½ × MIC] ([5]; with ½ × MIC of Compound (1a)): [8] fold
- MIC [6, 19]: 2 µg/mL
- MIC, +Compound (1a) [¼ × MIC] ([6]; with ¼ × MIC of Compound (1a)): 0.25 µg/mL
- fold decrease MIC, +Compound (1a) [¼ × MIC] ([6]; with ¼ × MIC of Compound (1a)): [8] fold
- MIC, +Compound (1a) [½ × MIC] ([6]; with ½ × MIC of Compound (1a)): 0.06 µg/mL
- fold decrease MIC, +Compound (1a) [½ × MIC] ([6]; with ½ × MIC of Compound (1a)): [32] fold
- MIC [7, 19]: 1 µg/mL
- fold decrease MIC, +Compound (1a) [¼ × MIC] ([7]; with ¼ × MIC of Compound (1a)): [8] fold
- MIC, +Compound (1a) [½ × MIC] ([7]; with ½ × MIC of Compound (1a)): 0.06 µg/mL
- fold decrease MIC, +Compound (1a) [½ × MIC] ([7]; with ½ × MIC of Compound (1a)): [16] fold

— patent publication US20080161249A1, “Use of Novel Antibacterial Compounds” (SMITHKLINE BEECHAM CORPORATION, priority 2004, published 2008)
